Experimental data: patent publication US10351576B2, “Fused tricyclic pyrazole derivatives useful for farnesoid X receptors” (NOVARTIS AG, priority 2015, dated 2019)

Molecular target: T1, human Farnesoid X Receptor (FXR) ligand binding domain (GST-FXR LBD) (Homo sapiens, UniProt Q96RI1)
T1 construct: purchased Invitrogen
T1 sequence (Q96RI1 193-472 isoform Q96RI1-2): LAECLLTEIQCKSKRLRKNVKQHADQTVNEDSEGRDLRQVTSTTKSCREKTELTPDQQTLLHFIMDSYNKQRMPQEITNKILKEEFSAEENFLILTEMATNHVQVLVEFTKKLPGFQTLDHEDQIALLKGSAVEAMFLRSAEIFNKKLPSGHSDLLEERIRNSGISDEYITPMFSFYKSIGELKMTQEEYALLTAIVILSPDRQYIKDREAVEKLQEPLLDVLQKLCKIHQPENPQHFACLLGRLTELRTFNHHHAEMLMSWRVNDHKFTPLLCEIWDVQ
Assay: Human GST-FXR LBD co-activator interaction assay (FXR HTRF assay)
Assay type: biochemical
Details: ligand-dependent interaction of GST-FXR LBD with biotin-labeled SRC-1 peptide, response relative to GW4064, read-out: FXR coactivator interaction assay (HTRF)
From the text: Human GST-FXR LBD Co-Activator Interaction Assay
The FXR HTRF assay is a biochemical assay measuring the interaction between FXR and a coactivator protein (SRC1). The ligand-induced interaction with a coactivator protein is a critical step in transcriptional activation by FXR. Thus, this is an assay designed to measure FXR agonist activity of the test compounds.
Recombinant human Farnesoid X Receptor (FXR) ligand binding domain (amino acids 193-472) fused to glutathione S-transferase (GST) purified protein (GST-FXR LBD) was purchased (Invitrogen). The ligand-dependent interaction between GST-FXR LBD and a peptide derived from Steroid Receptor Coactivator-1 (SRC-1) was monitored by Fluorescence Resonance Energy Transfer (FRET). […] Test compounds (in DMSO solution) and detection reagents (anti-GST-Cryptate labeled antibody and Streptavidin-XL665 conjugate; CisBio) were added in assay buffer containing 50 mM KF. Plates are incubated at room temperature in the dark for 2.5 hrs before reading on an Envision (PerkinElmer) at 665 nm and 590 nm. The HTRF assay results were calculated from the 665 nm/590 nm ratio (ratio=(A665 nm/A590 nm)×10^4) and expressed in Delta F %=(Ratiosample−Rationegative)/Rationegative×100.
A negative control (without Streptavidin-XL665) was run with each assay and represented the background fluorescence. A reference FXR agonist, (E)-3-(2-chloro-4-((3-(2,6-dichlorophenyl)-5-isopropylisoxazol-4-yl)methoxy)styryl)benzoic acid (Compound GW4064), was included in each experiment as positive control. The efficacy of each test compound was compared to that of GW4064. At each concentration, the relative activity of the test compound was expressed as Response %=(Rsample−RDMSO)/(Rpositive−RDMSO), where Rsample is the HTRF response (expressed in Delta F %) for the test compound, Rpositive is the maximal response for GW4064 at saturating concentrations, and RDMSO is the response for DMSO control. The EC50 values were calculated using GraphPad Prism (GraphPad Software) using non-linear regression curve fit (log(agonist) vs. response—variable slope (four parameters)).

Row | Compound | EC50
1 | Cn1nc(C(=O)N(Cc2ccccc2)Cc2ccc(C(N)=O)cc2)c2c1-c1cc(Cl)ccc1OC2 [Compound 53, N-benzyl-N-(4-carbamoylbenzyl)-8-chloro-1-methyl-1,4-dihydrochromeno[4,3-c]pyrazole-3-carboxamide] | 442 nM
2 | CNS(=O)(=O)c1ccc(CN(Cc2ccccc2)C(=O)c2nn(C)c3c2COc2ccc(Cl)cc2-3)cc1 [Compound 54, N-benzyl-8-chloro-1-methyl-N-{[4-(methylsulfamoyl)phenyl]methyl}-1H,4H-chromeno[4,3-c]pyrazole-3-carboxamide] | 266 nM
3 | Cn1nc(C(=O)N(Cc2ccccc2)Cc2ccc(S(C)(=O)=O)cc2)c2c1-c1cc(Cl)ccc1OC2 [Compound 56, N-benzyl-8-chloro-N-[(4-methanesulfonylphenyl)methyl]-1-methyl-1H,4H-chromeno[4,3-c]pyrazole-3-carboxamide] | 605 nM
4 | Cn1nc(C(=O)N(Cc2ccccc2)Cc2cccc(F)c2)c2c1-c1cc(Cl)ccc1OC2 [Compound 57, N-benzyl-8-chloro-N-[(3-fluorophenyl)methyl]-1-methyl-1H,4H-chromeno[4,3-c]pyrazole-3-carboxamide] | 509 nM
5 | Cn1nc(C(=O)N(CCNC(=O)NCC2CC2)Cc2ccccc2F)c2c1-c1cc(Cl)ccc1OC2 [Compound 60, 8-chloro-N-(2-(3-(cyclopropylmethyl)ureido)ethyl)-N-(2-fluorobenzyl)-1-methyl-1,4-dihydrochromeno[4,3-c]pyrazole-3-carboxamide] | 1810 nM
6 | CC(C)NC(=O)NCCN(Cc1ccccc1F)C(=O)c1nn(C)c2c1COc1ccc(Cl)cc1-2 [Compound 61, 8-chloro-N-[(2-fluorophenyl)methyl]-1-methyl-N-(2-{[(propan-2-yl)carbamoyl]amino}ethyl)-1H,4H-chromeno[4,3-c]pyrazole-3-carboxamide] | 1080 nM
7 | CC(C)C(=O)NCCN(Cc1cccc(F)c1)C(=O)c1nn(C)c2c1COc1ccc(Br)cc1-2 [Compound 62, 8-bromo-N-(3-fluorobenzyl)-N-(2-isobutyramidoethyl)-1-methyl-1,4-dihydrochromeno[4,3-c]pyrazole-3-carboxamide] | 18 nM
8 | CC(C)S(=O)(=O)NCCN(Cc1ccccc1F)C(=O)c1nn(C)c2c1COc1ccc(Cl)cc1-2 [Compound 63, 8-chloro-N-[(2-fluorophenyl)methyl]-1-methyl-N-[2-(propane-2-sulfonamido)ethyl]-1H,4H-chromeno[4,3-c]pyrazole-3-carboxamide] | 644 nM
9 | CC(C)S(=O)(=O)NCCN(Cc1ccccc1)C(=O)c1nn(C)c2c1COc1ccc(Br)cc1-2 [Compound 64, N-benzyl-8-bromo-1-methyl-N-[2-(propane-2-sulfonamido)ethyl]-1H,4H-chromeno[4,3-c]pyrazole-3-carboxamide] | 695 nM
10 | Cn1nc(C(=O)N(CC(=O)NCC2CC2)Cc2ccccc2F)c2c1-c1cc(F)ccc1OC2 [Compound 65, N-(2-((cyclopropylmethyl)amino)-2-oxoethyl)-8-fluoro-N-(2-fluorobenzyl)-1-methyl-1,4-dihydrochromeno[4,3-c]pyrazole-3-carboxamide] | 12 nM
11 | CC(C)C(=O)NCCN(Cc1ccccc1F)C(=O)c1nn(C)c2c1COc1ccc(Cl)cc1-2 [Compound 66, N-[2-(1-{8-chloro-1-methyl-1H,4H-chromeno[4,3-c]pyrazol-3-yl}-N-[(2-fluorophenyl)methyl]formamido)ethyl]-2-methylpropanamide] | 10 nM
12 | CC(C)C(=O)NCCN(Cc1ccccc1)C(=O)c1nn(C)c2c1COc1ccc(Br)cc1-2 [Compound 68, N-[2-(N-benzyl-1-{8-bromo-1-methyl-1H,4H-chromeno[4,3-c]pyrazol-3-yl}formamido)ethyl]-2-methylpropanamide] | 22 nM
13 | CC(C)C(=O)NCCN(Cc1ccccc1)C(=O)c1nn(C)c2c1COc1ccc(Cl)cc1-2 [Compound 73, N-[2-(N-benzyl-1-{8-chloro-1-methyl-1H,4H-chromeno[4,3-c]pyrazol-3-yl}formamido)ethyl]-2-methylpropanamide] | 50 nM
14 | Cn1nc(C(=O)N(CC(=O)NCC2CC2)CC2CCCCC2)c2c1-c1cc(Cl)ccc1OC2 [Compound 74, 2-(1-{8-chloro-1-methyl-1H,4H-chromeno[4,3-c]pyrazol-3-yl}-N-(cyclohexylmethyl)formamido)-N-(cyclopropylmethyl)acetamide] | 96 nM
15 | Cn1nc(C(=O)N(CC(=O)NCC2CC2)CC2CCCC2)c2c1-c1cc(Cl)ccc1OC2 [Compound 75, 2-(1-{8-chloro-1-methyl-1H,4H-chromeno[4,3-c]pyrazol-3-yl}-N-(cyclopentylmethyl)formamido)-N-(cyclopropylmethyl)acetamide] | 87 nM
16 | Cn1nc(C(=O)N(CCNc2nccs2)Cc2cccc(F)c2)c2c1-c1cc(Cl)ccc1OC2 [Compound 76, 8-chloro-N-[(3-fluorophenyl)methyl]-1-methyl-N-{2-[(1,3-thiazol-2-yl)amino]ethyl}-1H,4H-chromeno[4,3-c]pyrazole-3-carboxamide] | 259 nM
17 | Cn1nc(C(=O)N(CC(=O)NCC2CC2)Cc2ccccc2F)c2c1-c1cc(Br)ccc1OC2(C)C [Compound 78, 2-(1-{8-bromo-1,4,4-trimethyl-1H,4H-chromeno[4,3-c]pyrazol-3-yl}-N-[(2-fluorophenyl)methyl]formamido)-N-(cyclopropylmethyl)acetamide] | 2230 nM
18 | C[C@@H](C(=O)NCC1CC1)N(Cc1ccccc1F)C(=O)c1nn(C)c2c1COc1ccc(Cl)cc1-2 [Compound 80, (2S)-2-(1-{8-chloro-1-methyl-1H,4H-chromeno[4,3-c]pyrazol-3-yl}-N-[(2-fluorophenyl)methyl]formamido)-N-(cyclopropylmethyl)propanamide] | 61 nM
19 | Cn1nc(C(=O)N(CC(=O)NCC2CC2)Cc2nccs2)c2c1-c1cc(Cl)ccc1OC2 [Compound 81, 2-(1-{8-chloro-1-methyl-1H,4H-chromeno[4,3-c]pyrazol-3-yl}-N-(1,3-thiazol-2-ylmethyl)formamido)-N-(cyclopropylmethyl)acetamide] | 48 nM
20 | Cn1nc(C(=O)N(CC(=O)NCC2CCOCC2)Cc2ccccc2F)c2c1-c1cc(Cl)ccc1OC2 [Compound 82, 2-(1-{8-chloro-1-methyl-1H,4H-chromeno[4,3-c]pyrazol-3-yl}-N-[(2-fluorophenyl)methyl]formamido)-N-(oxan-4-ylmethyl)acetamide] | 178 nM
